SMILES strings stand for the structures. Some results are limits rather than exact numbers.

A word on the IC50: it is the midpoint of a concentration-inhibition curve.

The test deals with T1, USP25 (USP25-His6, Boston Biochem E-546) (Homo sapiens, UniProt Q9UHP3).
T1 construct: His6; purchased Boston Biochem E-546
T1 sequence (Q9UHP3 1-1055): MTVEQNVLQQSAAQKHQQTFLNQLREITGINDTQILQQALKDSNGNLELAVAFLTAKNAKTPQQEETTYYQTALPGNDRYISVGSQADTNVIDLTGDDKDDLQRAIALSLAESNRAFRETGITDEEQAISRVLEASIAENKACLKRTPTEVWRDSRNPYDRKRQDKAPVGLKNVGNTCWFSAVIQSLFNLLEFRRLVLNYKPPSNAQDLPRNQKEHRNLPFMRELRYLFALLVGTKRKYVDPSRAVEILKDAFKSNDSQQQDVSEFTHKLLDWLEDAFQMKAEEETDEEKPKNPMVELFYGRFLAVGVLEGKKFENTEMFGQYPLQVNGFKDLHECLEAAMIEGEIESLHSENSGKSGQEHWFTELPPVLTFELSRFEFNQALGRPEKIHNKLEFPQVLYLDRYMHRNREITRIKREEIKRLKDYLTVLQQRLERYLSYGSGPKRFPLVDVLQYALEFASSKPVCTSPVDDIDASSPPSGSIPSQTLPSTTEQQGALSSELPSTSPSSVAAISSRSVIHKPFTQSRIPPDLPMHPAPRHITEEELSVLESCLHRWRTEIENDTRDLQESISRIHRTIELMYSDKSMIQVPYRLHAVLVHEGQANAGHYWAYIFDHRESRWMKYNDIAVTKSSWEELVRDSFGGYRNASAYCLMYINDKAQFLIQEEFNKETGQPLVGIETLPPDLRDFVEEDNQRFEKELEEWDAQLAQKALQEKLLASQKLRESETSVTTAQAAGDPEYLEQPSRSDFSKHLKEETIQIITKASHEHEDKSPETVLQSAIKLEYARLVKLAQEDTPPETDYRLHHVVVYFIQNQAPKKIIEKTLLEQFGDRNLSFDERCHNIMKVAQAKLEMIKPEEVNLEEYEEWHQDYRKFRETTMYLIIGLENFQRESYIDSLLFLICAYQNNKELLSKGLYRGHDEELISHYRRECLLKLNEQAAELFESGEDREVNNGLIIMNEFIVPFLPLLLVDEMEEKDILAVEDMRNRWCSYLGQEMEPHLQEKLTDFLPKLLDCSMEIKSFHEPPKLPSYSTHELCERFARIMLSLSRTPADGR
The test can be described thus: Ubiquitin-Rhodamine 110 Assay for USP25 Activity, Example A-2. It is filed as biochemical. The settings on record: Ubiquitin-Rhodamine 110 assay, Example A-2; read-out: USP25 A-2 IC50 range. The method, boiled down: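 Inhibition is quantified as IC50 by 4-parameter fit of fluorescence (485/535 nm) from Ub-Rh110 hydrolysis. Enzyme USP25-His6 at 75 pM with 30 min compound preincubation, then 25 nM substrate for 45 min at room temperature in pH 8.0 Tris buffer containing BME.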

For the molecule `Cc1cnc2c(N)c(C(=O)N[C@H]3CCc4cc(N5CC6COCC(C5)N6)ccc4C3)sc2n1` [Example 456, N-((2S)-6-(3-oxa-7,9-diazabicyclo[3.3.1]nonan-7-yl)-1,2,3,4-tetrahydronaphthalen-2-yl)-7-amino-3-methylthieno[2,3-b]pyrazine-6-carboxamide], the half-inhibitory concentration (IC50) is over 2000 nM.

In the case of `Cc1cccc2c(C(=O)N[C@H]3COc4cc(N5CCNCC5)ccc4C3)cnn12` [Example 458, (R)-7-methyl-N-(7-(piperazin-1-yl)chroman-3-yl)pyrazolo[1,5-a]pyridine-3-carboxamide], the IC50 lay within 200 to 2000 nM.

Regarding `CC(=O)N1CCCc2cc(C(=O)N[C@H]3COc4cc(N5CCNCC5)ccc4C3)ccc21` [Example 459, (R)-1-acetyl-N-(7-(piperazin-1-yl)chroman-3-yl)-1,2,3,4-tetrahydroquinoline-6-carboxamide], the IC50 is over 2000 nM.

Take `O=C(N[C@H]1COc2cc(N3CCNCC3)ccc2C1)c1cnn2ccccc12` [Example 460, (R)-N-(7-(piperazin-1-yl)chroman-3-yl)pyrazolo[1,5-a]pyridine-3-carboxamide]: the IC50 is over 2000 nM.

Take `COc1ccn2ncc(C(=O)N[C@H]3COc4cc(N5CCNCC5)ccc4C3)c2c1` [Example 461, (R)-5-methoxy-N-(7-(piperazin-1-yl)chroman-3-yl)pyrazolo[1,5-a]pyridine-3-carboxamide]: the IC50 is over 2000 nM.

As for `O=C(N[C@H]1COc2cc(N3CCNCC3)ccc2C1)c1cnn2cc(Cl)ccc12` [Example 462, (R)-6-chloro-N-(7-(piperazin-1-yl)chroman-3-yl)pyrazolo[1,5-a]pyridine-3-carboxamide], the IC50 was over 2000 nM.

Consider `Cc1cc(C)n2ncc(C(=O)N[C@H]3COc4cc(N5CCNCC5)ccc4C3)c2n1` [Example 463, (R)-5,7-dimethyl-N-(7-(piperazin-1-yl)chroman-3-yl)pyrazolo[1,5-a]pyrimidine-3-carboxamide], for which the IC50 is over 2000 nM.

With `O=C(N[C@H]1COc2cc(N3CCNCC3)ccc2C1)c1cn2nc(Cl)ccc2n1` [Example 464, (R)-6-chloro-N-(7-(piperazin-1-yl)chroman-3-yl)imidazo[1,2-b]pyridazine-2-carboxamide], the IC50 was over 2000 nM.

Regarding `Cc1ccn2ncc(C(=O)N[C@H]3COc4cc(N5CCNCC5)ccc4C3)c2c1` [Example 465, (R)-5-methyl-N-(7-(piperazin-1-yl)chroman-3-yl)pyrazolo[1,5-a]pyridine-3-carboxamide], the IC50 was over 2000 nM.

In the case of `O=C(N[C@H]1COc2cc(N3CCNCC3)ccc2C1)c1cnn2cccnc12` [Example 466, (R)-N-(7-(piperazin-1-yl)chroman-3-yl)pyrazolo[1,5-a]pyrimidine-3-carboxamide], the IC50 is over 2000 nM.

On to `O=C(N[C@H]1COc2cc(N3CCNCC3)ccc2C1)c1ccc(NCc2cccnc2)nc1` [Example 468, (R)-N-(7-(piperazin-1-yl)chroman-3-yl)-6-((pyridin-3-ylmethyl)amino)nicotinamide], for which the IC50 was over 2000 nM.

Turning to `O=C(N[C@H]1COc2cc(N3CCNCC3)ccc2C1)c1ccc(NCc2cccc(C(F)(F)F)c2)nc1` [Example 469, (R)-N-(7-(piperazin-1-yl)chroman-3-yl)-6-((3-(trifluoromethyl)benzyl)amino)nicotinamide], the IC50 fell in the range of 50 to 200 nM.

Take `O=C(N[C@H]1COc2cc(N3CCNCC3)ccc2C1)c1ccc(NCc2ccccn2)nc1` [Example 470, (R)-N-(7-(piperazin-1-yl)chroman-3-yl)-6-((pyridin-2-ylmethyl)amino)nicotinamide]: the IC50 was over 2000 nM.

For `O=C(N[C@H]1COc2cc(N3CCNCC3)ccc2C1)c1ccc(NCc2ccc3c(c2)OCCO3)nc1` [Example 471, (R)-6-(((2,3-dihydrobenzo[b][1,4]dioxin-6-yl)methyl)amino)-N-(7-(piperazin-1-yl)chroman-3-yl)nicotinamide], the IC50 was in the range of 200 to 2000 nM.

Regarding `O=C(N[C@H]1COc2cc(N3CCNCC3)ccc2C1)c1ccc(NCc2ccc3c(c2)CCO3)nc1` [Example 472, (R)-6-(((2,3-dihydrobenzofuran-5-yl)methyl)amino)-N-(7-(piperazin-1-yl)chroman-3-yl)nicotinamide], the IC50 was 200 to 2000 nM.

In the case of `CC(=O)Nc1cccc(CNc2ccc(C(=O)N[C@H]3COc4cc(N5CCNCC5)ccc4C3)cn2)c1` [Example 473, (R)-6-((3-acetamidobenzyl)amino)-N-(7-(piperazin-1-yl)chroman-3-yl)nicotinamide], the IC50 is over 2000 nM.

`CCc1cccc2c(C(=O)N[C@H]3COc4cc(N5CCNCC5)ccc4C3)cnn12` [Example 474, 7-ethyl-N-[(3R)-7-(piperazin-1-yl)-3,4-dihydro-2H-1-benzopyran-3-yl]pyrazolo[1,5-a]pyridine-3-carboxamide]: the IC50 is 200 to 2000 nM.

Regarding `O=C(N[C@H]1COc2cc(N3CCNCC3)ccc2C1)c1cnn2c(CO)cccc12` [Example 475, 7-(hydroxymethyl)-N-[(3R)-7-(piperazin-1-yl)-3,4-dihydro-2H-1-benzopyran-3-yl]pyrazolo[1,5-a]pyridine-3-carboxamide], the IC50 is over 2000 nM.

The record behind these values is patent US11524966B1 (Valo Early Discovery, Inc., priority 2017, dated 2022).
